Data taken from patent US9675592B2, “Methods and compositions for bacteria infections” (priority 2013, dated 2017).
Like-named read-outs stand apart in the source and are kept apart here.

Experiments:
[1] = test system: test strain 923 pPvra-lux (USA300 MRSA); assay: Primary screen, relative growth in presence of oxacillin; conditions: compound 10 μM with oxacillin 2 μg/mL, absorbance 24 h, <0.50 = dead cells = hit
[2] = test system: vraSR promoter (Pvra-lux reporter in strain 923); assay: Primary screen, relative luminescence (vraSR expression)
[3] = primary screen, compound 10 μM with oxacillin 2 μg/mL, <0.50 = vraSR repressed = hit

| SMILES | RG avg (relative growth) [1] | RL avg (relative luminescence) [2, 3] | RL avg (relative luminescence) [2] |
| --- | --- | --- | --- |
| Cc1onc(-c2ccccc2Cl)c1C(=O)Nc1nnc(-c2cc(Cl)sc2Cl)o1 [F1374-2706] | 0.02 | 0.25 | – |
| COc1ccccc1-c1nnc(NC(=O)c2ccc(S(=O)(=O)N(C)c3ccccc3)cc2)o1 [F0559-127] | −0.05 | −0.11 | – |
| O=C(COc1ccc(Cl)cc1)Nc1nnc(-c2ccc3c(c2)CCCC3)o1 [F0608-664] | −0.04 | −0.01 | – |
| O=C(Nc1nnc(-c2ccc(Cl)s2)o1)c1nc2ccccc2s1 [F1374-1083] | 0.02 | 0.49 | – |
| O=C(Nc1nnc(-c2ccc(Br)s2)o1)c1nc2ccccc2s1 [F5093-37] | 0.02 | −0.03 | – |
| CC(C)c1ccc(Cc2nnc(NC(=O)c3ccc4ncsc4c3)o2)cc1 [F2368-1143] | −0.01 | −0.09 | – |
| O=C(Nc1nnc(-c2ccc(Cl)s2)o1)c1ccccc1Oc1ccccc1 [F1374-1149] | −0.01 | 0.28 | – |
| Cc1ccc(-c2nnc(NC(=O)c3ccc(Cl)s3)o2)c(C)c1 [F2518-186] | 0.01 | −0.09 | – |
| COc1cc(-c2nnc(NC(=O)c3ccc(S(=O)(=O)N4CCCC4)cc3)o2)cc(OC)c1OC [F0559-311] | −0.06 | 0.02 | – |
| Cc1ccc(-c2nnc(NC(=O)c3ccc(Cl)cc3Cl)o2)c(C)c1 [F2518-166] | −0.02 | −0.10 | – |
| O=C(COc1ccc(Cl)cc1Cl)Nc1nnc(-c2ccc(Cl)s2)o1 [F1374-1102] | 0.13 | – | 0.49 |
| O=C(Nc1nc(-c2ccccn2)cs1)c1cccc(Oc2ccccc2)c1 [F0447-264] | −0.03 | −0.05 | – |
| CSc1ccc(-c2nnc(NC(=O)c3ccc4c(c3)CCCC4)o2)cc1 [F2645-379] | 0.04 | 0.37 | – |
| CC1CN(S(=O)(=O)c2ccc(C(=O)Nc3nnc(-c4ccc(Cl)s4)o3)cc2)CC(C)O1 (centres unmarked) [F0559-377] | −0.08 | −0.09 | – |
| CCC1CCCCN1S(=O)(=O)c1ccc(C(=O)Nc2nnc(Cc3ccc(OC)cc3)o2)cc1 (centres unmarked) [F2368-619] | −0.03 | 0.01 | – |
| O=C(Nc1nnc(-c2ccc(Br)cc2)o1)c1cccc(Br)c1 [F2518-447] | 0.02 | 0.00 | – |
| CCOc1cc(-c2nnc(NC(=O)c3ccc4ccccc4c3)o2)cc(OCC)c1OCC [F2517-182] | 0.46 | −0.04 | – |
| Cc1ccc(C)c(-c2nnc(NC(=O)c3ccc(Br)s3)o2)c1 [F2518-329] | 0.00 | −0.11 | – |
| O=C(Nc1nnc(-c2cc3ccccc3o2)o1)c1cccc(Cl)c1 [F2273-385] | 0.28 | 0.16 | – |
| CC1CC(C)CN(S(=O)(=O)c2ccc(C(=O)Nc3nnc(-c4ccc(F)cc4)o3)cc2)C1 (centres unmarked) [F0559-106] | −0.07 | −0.07 | – |
| CC1(C)COCN1S(=O)(=O)c1ccc(C(=O)Nc2nnc(-c3ccc(Cl)s3)o2)cc1 [F0559-390] | −0.06 | −0.11 | – |
| O=C(Nc1nnc(-c2ccncc2)o1)c1ccc(Oc2ccccc2)cc1 [F0608-1161] | 0.00 | −0.07 | – |
| O=C(Nc1nnc(-c2ccc(F)cc2)o1)c1sc2ccccc2c1Cl [F1374-148] | 0.04 | 0.36 | – |
| O=C(Nc1nnc(-c2ccc3c(c2)CCCC3)o1)c1ccc(S(=O)(=O)N2CCOCC2)cc1 [F0608-560] | −0.07 | −0.07 | – |
| CCOc1cccc2cc(-c3nnc(NC(=O)c4sc5ccccc5c4Cl)o3)oc12 [F2273-238] | 0.26 | 0.19 | – |
| O=C(Nc1nnc(-c2ccc(Br)cc2)o1)c1ccc2ncsc2c1 [F2518-558] | −0.02 | −0.08 | – |

| SMILES | RG avg (relative growth) [1] | RL avg (relative luminescence) [2, 3] | RL avg (relative luminescence) [2] |
| --- | --- | --- | --- |
| O=C(Nc1nnc(-c2ccc3c(c2)CCCC3)o1)c1cccs1 [F0608-554] | −0.04 | −0.08 | – |
| O=C(Nc1nnc(-c2ccc3c(c2)CCCC3)o1)c1cc(Cl)sc1Cl [F0608-668] | 0.02 | −0.06 | – |
| COC(=O)c1ccc(C(=O)Nc2nnc(-c3ccccc3Cl)o2)cc1 [F1374-55] | 0.28 | 0.47 | – |
| COc1ccc(-c2nnc(NC(=O)c3cccc(C(F)(F)F)c3)o2)c(OC)c1 [F1374-562] | 0.02 | 0.38 | – |
| O=C(Nc1nnc(-c2ccc(Br)cc2)o1)c1cc(Cl)sc1Cl [F2518-504] | 0.01 | 0.00 | – |
| CCN(Cc1ccccc1)S(=O)(=O)c1ccc(C(=O)Nc2nnc(-c3ccc(OC)cc3)o2)cc1 [F0559-206] | 0.19 | −0.11 | – |
| O=C(Nc1nnc(-c2ccc3c(c2)CCCC3)o1)c1ccc(Cl)cc1Cl [F0608-661] | 0.11 | −0.04 | – |
| O=C(Nc1nnc(C2COc3ccccc3O2)o1)c1ccc(S(=O)(=O)N2CCCc3ccccc32)cc1 (centres unmarked) [F0608-715] | −0.01 | −0.05 | – |
| CSc1ccc(-c2nnc(NC(=O)c3ccc(S(=O)(=O)N(C)Cc4ccccc4)cc3)o2)cc1 [F2645-405] | 0.29 | 0.57 | – |
| COc1cccc(C(=O)Nc2nnc(-c3ccc(C)c(C)c3)o2)c1 [F2767-17] | 0.00 | −0.15 | – |
| Cc1ccc(Cc2nnc(NC(=O)c3ccc(S(=O)(=O)N(C)c4ccccc4)cc3)o2)c(C)c1 [F2368-431] | −0.02 | −0.06 | – |
| O=C(Nc1nnc(-c2cccs2)o1)c1ccc2c(c1)CCCC2 [F1374-1012] | 0.16 | 0.49 | – |
| COc1ccc(-c2nnc(NC(=O)c3ccc(C(=O)c4ccccc4)cc3)o2)cc1 [F1374-443] | 0.05 | 0.39 | – |
| COc1ccc(-c2nnc(NC(=O)c3ccc(C(C)(C)C)cc3)o2)cc1 [F1374-495] | 0.04 | 0.37 | – |
| COc1ccc(-c2nnc(NC(=O)c3cc(Cl)sc3Cl)o2)cc1OC [F2767-204] | −0.02 | −0.09 | – |
| COc1cc(-c2nnc(NC(=O)c3ccc(S(=O)(=O)N(Cc4ccccc4)C(C)C)cc3)o2)cc(OC)c1OC [F0559-328] | 0.15 | 0.01 | – |
| Cc1ccc(C)c(-c2nnc(NC(=O)c3ccc4c(c3)CCCC4)o2)c1 [F2518-373] | 0.05 | −0.05 | – |
| Cc1ccc(C)c(-c2nnc(NC(=O)c3cccc(Br)c3)o2)c1 [F2518-303] | 0.00 | −0.02 | – |
| CC(C)Cn1c(N)c(C(=O)NCc2cccs2)c2nc3ccccc3nc21 [F3225-3356] | 0.39 | 0.01 | – |
| O=C(Nc1nnc(-c2ccc(F)cc2)o1)c1ccc2c(c1)CCCC2 [F1374-172] | 0.04 | 0.39 | – |
| O=C(Nc1nnc(-c2cccs2)o1)c1sc2ccccc2c1Cl [F1374-988] | 0.03 | 0.37 | – |
| Cc1ccc(NCC(O)Cn2c3ccc(Br)cc3c3cc(Br)ccc32)cc1 (centres unmarked) [F0191-4604] | −0.07 | −0.06 | – |
| O=C(Nc1nnc(-c2ccco2)o1)c1ccc(S(=O)(=O)N2CCCc3ccccc32)cc1 [F0608-447] | −0.05 | −0.02 | – |
| COC(=O)c1ccc(C(=O)Nc2nnc(-c3cc(C)ccc3C)o2)cc1 [F2518-355] | −0.01 | −0.04 | – |
| COc1cccc(-c2nnc(NC(=O)c3ccc(S(=O)(=O)N(Cc4ccccc4)C(C)C)cc3)o2)c1 [F0559-178] | −0.06 | −0.07 | – |
| Cc1ccc(C)c(-c2nnc(NC(=O)c3cc(Cl)sc3Cl)o2)c1 [F2518-360] | 0.04 | 0.13 | – |
